Test results taken from publication PMC6788984, “High-potency ligands for DREADD imaging and activation in rodents and monkeys” (Nature Communications, 2019).
Where “and” joins values, the source holds several entries; their conditions need not be identical. Equal values may be shown once. Entries after “also recorded” stand apart in the source; their conditions may differ.

Tests used:
[1] = tested on: mu, kappa, and delta opioid receptors; test: Binding and enzyme target profile screen (Eurofins); conditions: competitive binding screen, 10 uM
Description: These experiments were performed by an outside vendor (Eurofins, France). […] In each experiment, the respective reference compound was tested concurrently with the test compound to assess the assay reliability. […] Following incubation, the samples were filtered rapidly under vacuum through glass fiber filters presoaked in a buffer and rinsed several times with an ice-cold buffer using a 48-sample or 96-sample cell harvester. The filters were counted for radioactivity in a scintillation counter using a scintillation cocktail.

hM3Dq = hM3Dq (Homo sapiens, UniProt P20309, A239G/Y149C); test: [11C]clozapine PET DREADD occupancy in AAV-DREADD mice, hM3Dq; conditions: 0.1 mg kg-1 IP, individual values, listed as J52
hM3Dq, sequence (P20309 whole entry Y149C/A239G): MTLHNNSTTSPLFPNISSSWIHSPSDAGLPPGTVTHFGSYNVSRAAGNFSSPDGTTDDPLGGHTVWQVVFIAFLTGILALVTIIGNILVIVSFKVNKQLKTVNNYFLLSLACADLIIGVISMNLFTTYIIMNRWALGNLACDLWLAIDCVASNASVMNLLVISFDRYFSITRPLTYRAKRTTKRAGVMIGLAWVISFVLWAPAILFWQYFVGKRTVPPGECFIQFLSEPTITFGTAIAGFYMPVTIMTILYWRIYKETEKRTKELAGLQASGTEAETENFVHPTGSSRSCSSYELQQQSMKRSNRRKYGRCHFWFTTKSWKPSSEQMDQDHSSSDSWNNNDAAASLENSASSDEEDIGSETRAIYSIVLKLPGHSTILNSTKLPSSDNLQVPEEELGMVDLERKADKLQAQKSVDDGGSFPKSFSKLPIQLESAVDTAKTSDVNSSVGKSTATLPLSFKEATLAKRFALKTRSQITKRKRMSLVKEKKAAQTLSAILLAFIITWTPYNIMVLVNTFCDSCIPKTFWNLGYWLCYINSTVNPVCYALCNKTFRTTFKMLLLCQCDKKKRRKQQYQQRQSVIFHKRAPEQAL
Description: Animals were anesthetized with isoflurane or a mix of ketamine/xylazine and prepped on a stereotaxic apparatus (Kopf, Germany). […] When indicated, animals were pretreated with vehicle or the indicated drug 10 min before the injection of the PET radiotracer. Total acquisition time was 60 min.
In all cases, the PET data were reconstructed and corrected for dead-time and radioactive decay. All qualitative and quantitative assessments of PET images were performed using the PMOD software environment (PMOD Technologies, Zurich Switzerland). Binding potential BPND (a relative measure of specific binding) was calculated using a reference tissue model using the cerebellum as a reference tissue in rodents. In macaques, the kinetic data were fitted to a two-tissue compartment model and the concentration of parent in plasma was used as an input function, then the volume of distribution ratios compared to cerebellum were calculated to establish BPND. In all cases, the dynamic PET images were coregistered to MRI templates and time-activity curves were generated using predefined volumes of interest (macaques) or manually drawn in rodents and the described analyses were performed. Receptor occupancy was calculated using the formula: occupancy = (BPND^0 − BPND^Drug)/BPND^0 × 100, where BPND^0 is the binding potential of the baseline condition and BPND^Drug the binding potential when the animals were pretreated with the drug.

[2] = Serum and CSF concentrations in monkey (LC-MS/MS); type: in vivo, rhesus monkey (Macaca mulatta); conditions: 0.1 mg kg-1
Description: Monkey blood and CSF samples were collected from totally implanted subcutaneous access ports (Access Technologies, Virginia), connected to catheters indwelling in the femoral artery or intrathecal space of the spinal column, respectively. Rodent blood samples and brains were collected immediately following sacrifice at the indicated time points after intraperitoneal injection (10 ml kg^−1) in buffered saline. CSF was immediately frozen on dry ice and stored at −80 °C. Blood samples were allowed to coagulate for 15 min and then centrifuged at 4 °C for 15 min. Serum was collected from the supernatant and stored at a minimum of −30 °C until extraction. To 25 µl of serum, 5 µl of internal standard and 110 µl of methanol were added. Samples were centrifuged for 10 min at 16,200×g at 4 °C and the supernatant was transferred to the autosampler vial for analysis. Brains were cut in half and weighed prior to sample preparation. Half brains were homogenized in 490 µl of 85% ethanol: 15% water containing 0.1% formic acid and 5 µl of internal standard using a polytron homogenizer and centrifuged for 10 min at 16,200×g at 4 °C. […]
Data were acquired using a Nexera XR HPLC (Shimadzu) coupled with a QTRAP 6500 (SCIEX), and was analyzed with Analyst 1.6 (SCIEX). […]
The data were measured using standard curves and quality controls, but it was not validated to ICH guidelines. […]

hM4Di = molecular target: T1, hM4Di (Homo sapiens, UniProt P08173, A203G/Y113C); test: In vivo electrophysiology: ChrimsonR light-evoked responses in LA of mice expressing hM4Di in MGM terminals; set-up: 026219; host or cells: mouse brain, dopamine D1 receptor-expressing neurons (transgene); species or system mouse; conditions: 0.1 mg kg-1 IP
T1 sequence (P08173 1-479 Y113C/A203G): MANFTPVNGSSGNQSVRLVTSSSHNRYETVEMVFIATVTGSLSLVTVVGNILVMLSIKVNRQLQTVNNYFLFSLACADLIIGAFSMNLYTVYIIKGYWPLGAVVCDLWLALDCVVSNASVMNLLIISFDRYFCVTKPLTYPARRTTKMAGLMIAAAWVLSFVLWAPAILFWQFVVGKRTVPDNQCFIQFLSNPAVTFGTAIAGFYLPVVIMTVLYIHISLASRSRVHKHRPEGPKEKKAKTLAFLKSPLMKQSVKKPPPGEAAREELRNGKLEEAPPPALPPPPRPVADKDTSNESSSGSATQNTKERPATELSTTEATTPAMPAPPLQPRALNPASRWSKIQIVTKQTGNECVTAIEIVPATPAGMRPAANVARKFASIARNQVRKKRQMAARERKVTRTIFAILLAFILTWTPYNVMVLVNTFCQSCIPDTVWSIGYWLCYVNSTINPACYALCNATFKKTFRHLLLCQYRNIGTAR
Description: Mice were purchased from Janvier Labs and stored in grouped cages (maximun 4 per cage) with ad libitum access to food and water, and in a 12 h light/dark cycle (lights on at 7:00 a.m.). All the experiments were performed in accordance to the national Danish law for the use of laboratory animals and approved by local authorities.
For AAV injection, mice were anaesthetized with Isoflurane and placed in a stereotaxic holder (Narishige, Japan). A trephine hole was drilled above the MGM (from bregma, AP 3.1 mm, ML 1.8 mm). Several injections of a mixture of ssAAV-8/2-hSyn1-hM4D(Gi)_mCherry-WPRE-hGHp(A) and ssAAV-8/2-hSyn1-oChIEF_ChrimsonR_mCitrine-WPRE-SV40pA (in a 1:4 viral particle ratio) were performed sequentially in different locations (AP 3.05 mm, ML 1.75 mm, DV 3.2 and 3.5 mm; second location AP 3.2 mm, ML 1.85 mm, DV 3.3 and 3.6 mm) so that a total of 4 injections of 0.5 µL were made to distribute the virus evenly through the desired location. Injections were made using a pressurized picospritzer and a pulled glass pipette. After viral injection, animals were kept for 4 weeks to ensure maximum virus expression through axon terminals.
For recording experiments, animals were anesthetized with […] urethane (i.p.), injected with 0.1 ml lidocaine (s.c.) in the incision points, and placed in a stereotaxic holder (Narishige, Japan). A trephine was drilled above the LA (from bregma, AP 1.5 mm, ML 3.1 mm) and the 32 channel opto-electrode was lowered whilst stimulating until a maximum response was located (DV 4 ± 0.2 mm). Body temperature was maintained constant at 37 °C through a feedback-regulated heating pad. Before recording, tissue was left for 10–20 mins for accommodation. Input–output test curves were recorded for both intensity and pulse length 30 min before and 1 h after drug injections using 1 ms-long pulses at 0.33 Hz (450 nm, 110 mA light intensity, ~14 mW, see Supplementary Fig. 10 Panel A). […]

With `c1ccc2c(c1)N=C(N1CCNCC1)c1ccccc1N2` [C21] the “binding to opioid receptors” value [1] was “exhibited binding to mu, kappa, and delta opioid receptors; also recorded: binds to opioid receptors”.

For `CCN1CCN(C2=Nc3cc(Cl)ccc3Nc3cccc(F)c32)CC1` [JHU37152, 8-Chloro-11-(4-ethylpiperazin-1-yl)-1-fluoro-5H-dibenzo[b,e][1,4]diazepine], the “displacement of in vivo [11C]clozapine binding, hM3Dq” value (hM3Dq) was 25.1963 and 16.746 and 26.3837.

For `CCN1CCN(C2=Nc3cc(Cl)ccc3Nc3c(F)cccc32)CC1` [JHU37160, 8-Chloro-11-(4-ethylpiperazin-1-yl)-4-fluoro-5H-dibenzo[b,e][1,4]diazepine], the CSF concentration [2] was “below our system’s detection limit”, the serum detection [2] was “detected in serum” and the “light-evoked response, % of baseline (maximal inhibition)” value (hM4Di; 30 min after injection) was 19 ± 2 % of baseline. For the same compound, the “inhibition of ChrimsonR-induced terminal activation” value (hM4Di; ~10 min) was 60% and the “light-evoked response, % of baseline” value (hM4Di; ~10 min) was 36 ± 9 % of baseline.
